Test results as given in patent US20020147136A1, “Compounds for targeting endothelial cells, compositions containing the same and methods for their use” (priority 2000, published 2002).
Residues, ends and D or L forms follow the SMILES beside them.

Columns and labels:
KDR/FIk-1 receptor = assay: Inhibition of phospho-tyrosine activation of KDR by VEGF in HUVEC; format: cell-based, human; conditions: 200 μM
Method: The ability of various compositions comprising TKPPR monomers or multimers to inhibit phospho-tyrosine activation of the KDR/FIk-1 receptor by VEGF was evaluated using HUVECs. Nine 100 mm confluent dishes of cultured HUVEC cells were serum starved overnight in basal (EBM) medium without any additives. The next morning the plates were divided into three groups as follows:
1. 3 Plates had their medium changed to fresh EBM medium with no additions.
After 5 minutes at 37° C. the dishes were all drained and quickly washed 3 times with cold D-PBS with Ca and Mg (Life Technologies). Lysates were prepared from each treatment group using Triton X-100 lysis buffer (20 mM Tris pH 8.0, 137 mM NaCl, 10% glycerol, 1% Triton X-100, 2 mM EDTA Supplemented with 1 mM PMSF, […] Leupeptin and Aprotinin, 1 mM sodium orthovanadate, 50 mM sodium pyrophosphate, 100 mM sodium fluoride.) The pooled lysates from each group were precleared using Protein A beads from Sigma then incubated overnight with anti-KDR antibody (Sc-504 from Santa Cruz Biotech). The immune complexes were brought down by adding fresh Protein A beads. […] The intensity of phosphorylated (active) KDR for each treatment group was determined from the PY-20 blot then normalized to the total amount of KDR present as determined by re-probing with anti-KDR (sc-315).

Neuropilin-1/Fc = assay: Fluorescence polarization binding to NP-1/Fc; conditions: unlabeled competitor; read-out: IC50 for competing BRU-326 binding to NP-1
Method: The ability of various compositions comprising TKPPR monomers or multimers to bind to NP-1/Fc and KDR-Fc was evaluated using FP. The binding studies of various Oregon Green (OG)-labeled compounds comprising TKPPR monomers or multimers and related compounds with Neuropilin-1/Fc, and KDR-Fc (both from R&D Systems), were carried out at 37° C. in D-PBS buffer (pH 7.4). FP values (mP) for each substrate was measured by titrating the ligand (5-20 nM) with receptor protein using a Jolley Research and Consulting FPM-1 fluorescence Polarization analyzer. In each of these experiments the observed polarization values were plotted against receptor concentration. The mP values for 100% binding of tracer labeled ligand to receptor protein was calculated using the software provided by the vendor.

[1] = test system: Human aortic endothelial cells (HAEC); assay: Free TKPPR peptide inhibition of TKPPR-conjugated bead binding to HAEC; format: cell-based
Method: HAEC were seeded into each well of an 8-well chamber slide (Collagen I Cellware, Becton Dickinson) and allowed to achieve confluence at 37° C. Solutions containing both TKPPR-beads (final concentration 4.9×10^6/mL) and green control beads (final concentration 4.9×10^6/mL) were prepared in D-PBS containing protease inhibitor cocktail (final dilution 1:50) and 0, 10, 25, 50, 100, 200, or 500 μM free TKPPR peptide. 0.25 mL of each microsphere solution was added to a well in the drained chamber slide and incubated at RT for 15 min. Two wells received the bead solution (mixed unconjugated and TKPPR beads as indicated above) lacking free competing TKPPR peptide. The slide was then washed three times with 0.5 mL D-PBS containing 0.1% Tween 20, fixed with methanol for 1 min and mounted. The three images for each level of TKPPR competition and the six images of the control were averaged and the % inhibition of binding was calculated using the following equation:
% Inhibition=100×(Control Density−Competition Density)/Control Density
A total of eleven 8-well slides were evaluated for competitive TKPPR-bead binding to HAEC on 7 different days.

SMILES: CC(O)C(N)C(=O)NC(CCCCN)C(=O)N1CCCC1C(=O)N1CCCC1C(=O)NC(CCCNC(=N)N)C(=O)O [TKPPR, L-Arginine, L-threonyl-L-lysyl-L-prolyl-L-prolyl] (H-TKPPR-OH; configuration not given here)
- effect on the ability of VEGF to activate KDR (KDR/FIk-1 receptor): no effect
- IC50 (Neuropilin-1/Fc): 80 µM
- Average (n = 11) % Inhibition of TKPPR-bead binding ([1]; free TKPPR 10 μM): 30.8%
- Average (n = 11) % Inhibition of TKPPR-bead binding ([1]; free TKPPR 25 μM): 50.7%
- Average (n = 11) % Inhibition of TKPPR-bead binding ([1]; free TKPPR 50 μM): 50.5%
- Average (n = 11) % Inhibition of TKPPR-bead binding ([1]; free TKPPR 100 μM): 62.0%
- Average (n = 11) % Inhibition of TKPPR-bead binding ([1]; free TKPPR 200 μM): 72.2%
- Average (n = 11) % Inhibition of TKPPR-bead binding ([1]; free TKPPR 500 μM): 70.6%
